Consider two compounds from patent US12036214B2, “Solid dispersion comprising an anticancer compound for improved solubility and efficacy” (COUNCIL OF SCIENTIFIC AND INDUSTRIAL RESEARCH, priority 2018, dated 2024).

One data set can be described thus: Lipophilicity (log P). The format is physicochemical.
Data set [1] can be described thus: Water solubility by shake flask method with HPLC analysis. The format is physicochemical. To be noted: distilled water, 25 °C, thermodynamic from solid. As to the method: (§1) The water solubility of prepared solid dispersions along with compound of Formula A was determined using shake flask method, wherein the analysis was done by HPLC. The in-vitro dissolution studies were performed using U.S.P. type-2 (paddle type) dissolution apparatus at a speed of 50 rpm, and temperature of 37° C.±0.5, using 250 ml of dissolution media (0.25% SLS containing water and phosphate buffer pH 6.8 up to 6 h). Further, the solid dispersions were characterized using different analytical techniques such as DSC, FTIR, XRD, etc.
Solid dispersions were formulated as different formulations containing anticancer compound (formula A) along with different polymers in different proportions as shown in Table 1 and 2. First the anticancer compound and various excipients/hydrophilic polymers were weighed accurately. Both the compound and polymers were dissolved in methanol. Those polymers which were insoluble in methanol were dissolved in water. […] After complete drying, the water solubility of compound was determined by shake-flask method followed by […] analysis. […]
The water solubility of formulations prepared in Example 4 and compound of Formula A was determined in each well of plate containing different solid dispersion formulations. […] The supernatant was then analyzed by RP-HPLC.

Data set [2] in a line: pH dependent stability in buffers, SGF, SIF and plasma. The format is physicochemical. Conditions: pH 1.2, pH 4.0, pH 6.8, PBS pH 7.4, SGF (pH 1.2), SIF (pH 6.8) and plasma, upto 24 hrs. As to the method: The stability of compound was performed in pH 1.2 buffer, pH 4.0 buffer, phosphate buffer pH 6.8, phosphate buffered saline pH 7.4, SGF (pH 1.2), SIF (pH 6.8) and plasma upto 24 hrs. The % compound hydrolyzed or degraded was determined by HPLC analysis.

Data set [3] in a line: In-vitro dissolution, USP type-2 paddle apparatus, sink conditions. The format is physicochemical. To be noted: 50 rpm, 37° C. As to the method:
as §1
The dissolution profile of compound and solid dispersion formulation VKB-SD75 was studied in sink conditions. For the sink condition, 0.25% SLS was added to dissolution media and dissolution was studied in water and pH 6.8 phosphate buffer (Ilevbare, G. A. et al., Pharmaceutical amorphous solid dispersions, Eds. John Wiley & Sons 2015, pp. 218). The dissolution studies were carried out using Lab-India Dissolution Tester (Model: DS 8000; apparatus 2—Paddle Apparatus) at 50 rpm and 37° C.±0.5 and dissolution media volume was 250 mL. Formulation equivalent to 10 mg of compound was added to each dissolution vessel in triplicate and 1 ml sample was taken and replaced by fresh dissolution media at different time points (0.25, 0.50, 1, 2, 4, 6 hrs).
The percentage drug dissolved was determined by HPLC analysis. […]

The test system of data set [4] is Ehrlich Ascites Carcinoma (EAC) cells. As to the kind of experiment: Ehrlich solid tumor model. The format is in vivo. As to the method: Novel oral solid dispersion containing anticancer compound of formula A was tested for in-vivo anticancer activity using Ehrlich Solid Tumor model. In this model, after oral administration of formulation VKB-SD75 and the compound of formula A in male Swiss mice up to 9 days, the % tumor growth inhibition was calculated on 13th day.
The in-vivo efficacy testing of best identified solid dispersion formulation VKB-SD75 was done using Ehrlich solid tumor model, parallelly with the compound of Formula A. Ehrlich Ascites Carcinoma (EAC) cells were collected from the peritoneal cavity of the Swiss mice weighing 18-23 g, harboring 8-10 days old ascetic tumor. 1×10^7 EAC cells were injected intramuscularly in the right thigh of Swiss male mice selected for the experiment on day 0. The next day, animals were randomized and divided into 8 groups. Seven treatment groups contained 7 animals each and one control groups contained 10 animals each. Treatment group 1-6 were treated with the compound of formula A and solid dispersion formulation at different dose strength once daily from day 1-9. The seventh treatment group was treated with 5-fluorouracil (22 mg/kg, i.p.) from day 1-9 and it served as positive control. The control group was similarly administered normal saline (0.2 ml, i.p) from day 1-9. On day 9 & 13, tumor-bearing thigh of each animal was shaved, and longest and shortest diameters of the tumor were measured with the help of vernier caliper. The percent tumor growth inhibition was calculated on day 13 by comparing the average values of treated groups with that of the control group. Tumor growth in saline-treated control animals was taken to be 100%.

The conditions of data set [5]: male, BALB/c, mouse, in vivo, po, 50 mg/kg.
Experimental: (§2) The vehicle used for PK study was 1% v/v Tween 80 in 0.5% sodium CMC in water. Blood samples were collected (n=3/time point) at 0.083 (IV only), 0.25, 0.5, 1, 2, 4, 8 and 24 h, post-dose. At each time point about 200 μL of blood was collected by jugular vein into a labeled microfuge tube containing 200 mM K2EDTA solution (20 μL per mL of blood) and equivalent volume of heparinized saline was replaced following sample collection. The blood samples were processed to obtain the plasma samples within 30 min of scheduled sampling time. All plasma samples were stored below −60° C. until bioanalysis. […] The pharmacokinetic parameters of compound of formula A were calculated using the non-compartmental analysis tool of validated Phoenix® WinNonlin® software (version 6.3).
A further data set relates to Molt-4. Conditions: read-out: Molt-4 cell growth GI50; cited from earlier work.
A further data set relates to MIAPaCa-2. Conditions: read-out: MIAPaCa-2 cell growth GI50; cited from earlier work.
In data set [6] the test system is cancer cells over normal fibroblast-cells. Conditions: cited from earlier work.
A further data set has as its system CYP/efflux-pump. Conditions: cited from earlier work.
Another data set deals with pancreatic xenograft. Conditions: 50 mg/kg, po; cited from earlier work.
In the next data set the test system is colon xenograft. To be noted: 50 mg/kg, po; cited from earlier work.
For a further data set, the system named is leukemia xenograft. To be noted: 50 mg/kg, po; cited from earlier work.
The next data set in a line: in vivo. To be noted: male, BALB/c, mouse, po, 50 mg/kg.
The nature of a further data set: physchem. Conditions: 37 °C, water, thermodynamic from solid.

Values joined by “and” are separate entries in the source; they are usually repeats but may differ in a detail not shown here. Identical values can stand only once.

The term log P denotes the decadic logarithm of the partition coefficient of the neutral form, usually between octanol and water. A low value points to a more hydrophilic compound. In general, solubility refers to the dissolved amount per volume that the medium holds. Read a low solubility as a poorly soluble substance. The term Cmax denotes the maximum level reached in the sampled fluid or tissue. As usually defined, the GI50 is the concentration that inhibits growth by half. Broadly, the Tmax is the time at which the peak concentration occurs.

Experimental for in vivo: as §2

`CN1CC[C@H](c2c(O)cc(O)c3c(=O)cc(/C=C/c4c(Cl)cccc4Cl)oc23)[C@H](O)C1` [Compound of formula A, (1′R,2′S)-2-(2,6-dichlorostyryl)-5,7-dihydroxy-8-(3-hydroxy-1-methylpiperidin-4-yl)-4H-chromen-4-one]: the “log P” value in “Lipophilicity (log P)” came to 3.10. Also, the solubility at 24 h in data set [1] was 10 to 20 µg/mL. In addition, in data set [2], the “% drug remaining” value was over 95%. Also, the “% drug dissolution” value in data set [3] (phosphate buffer pH 6.8, 0.25% SLS, after 1 h) was 63%. For the same compound, the “% drug dissolved” value in data set [3] (water containing 0.25% SLS, after 2 h) turned out to be 49.15%. Further, the Mortality in data set [4] (50 mg/kg p.o), in data set [4] (75 mg/kg p.o.) and in data set [4] (100 mg/kg p.o.) was 0/7 throughout. The “% Tumor growth inhibition on 13th day” value is 24.75% and 24.75 ± 3.52% in data set [4] (50 mg/kg p.o, once daily day 1-9); 30.92% and 30% and 30.92 ± 5.32% in data set [4] (75 mg/kg p.o., once daily day 1-9); 38.63 ± 3.65% in data set [4] (100 mg/kg p.o., once daily day 1-9). The same compound came in with an AUClast in data set [5] of 2570 ng·h/mL. The compound further registered a Cmax in data set [5] of 656 ng/mL. Besides, the GI50 with Molt-4 and in the data set on MIAPaCa-2 was under 1000 nM throughout. Besides, in [6], the “selectivity for cancer cells over normal fibroblast-cells” value is listed as “highly selective”. Also, the CYP/efflux-pump liability entry in the data set with CYP/efflux-pump is listed as “did not have CYP/efflux-pump liability”. Moreover, the “in-vivo efficacy in pancreatic xenograft” value with pancreatic xenograft is listed as “showed in-vivo efficacy”. Also, in the data set with colon xenograft, the “in-vivo efficacy in colon xenograft” value is on record as “showed in-vivo efficacy”. The “in-vivo efficacy in leukemia xenograft” value in the data set on leukemia xenograft is “showed in-vivo efficacy”. In addition, the Tmax in “in vivo” came to 1 h. The solubility at 120 min in the data set “physchem” was in the range of 10 to 20 µg/mL.

For `O=c1[nH]cc(F)c(=O)[nH]1` [Formulation 5-FU, 5-fluorouracil, reference compound], the Mortality in data set [4] (22 mg/kg, i/p) is given as 0/7. Moreover, the “% Tumor growth inhibition on 13th day” value in data set [4] (22 mg/kg, i/p, day 1-9) stood at 49.44 ± 6.32%.
